# Laboratory results published in patent US20140120232A1, “ACID TASTE/ACID SMELL-REDUCING AGENT” (T. HASEGAWA CO., LTD., priority 2011, published 2014).
# Assay: Sensory evaluation of Vermont drink containing the agent
# Settings: ten panels
# In short: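 Tridecadienal or tridecatrienal isomers added at various concentrations to a Vermont-flavoured drink (apple-cider vinegar, honey, liquid sugar, citric acid, trisodium citrate, 100 mL total). Ten panelists assessed acid taste/acid smell and aldehyde-type off-odour, and the concentration giving the best acid taste/smell quality was selected.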
structure (smiles),measurement,setting,value
"CCCCC/C=C/C/C=C\C=C\C=O [(E,Z,E)-2,4,7-tridecatrienal]","A: number of panels, acid taste/acid smell extreme and cause irritation",0.005 ppt,10
same,"B: number of panels, acid taste/acid smell slightly strong and slightly cause irritation",0.005 ppt,0
same,"C: number of panels, acid taste/acid smell slightly unpleasant",0.005 ppt,0
same,Flavor judgment: number of panels who judged acid taste/acid smell quality the highest,0.005 ppt,0
same,"N: number of panels, irritation of acid reduced to give a mild acid taste",0.005 ppt,0
same,"X: number of panels, acid taste reduced but piercing odor characteristic to aldehydes unpleasant",0.005 ppt,0
same,"A: number of panels, acid taste/acid smell extreme and cause irritation",0.02 ppt,10
same,"B: number of panels, acid taste/acid smell slightly strong and slightly cause irritation",0.02 ppt,0
same,"C: number of panels, acid taste/acid smell slightly unpleasant",0.02 ppt,0
same,Flavor judgment: number of panels who judged acid taste/acid smell quality the highest,0.02 ppt,0
same,"N: number of panels, irritation of acid reduced to give a mild acid taste",0.02 ppt,0
same,"X: number of panels, acid taste reduced but piercing odor characteristic to aldehydes unpleasant",0.02 ppt,0
same,"A: number of panels, acid taste/acid smell extreme and cause irritation",0.1 ppt,10
same,"B: number of panels, acid taste/acid smell slightly strong and slightly cause irritation",0.1 ppt,0
same,"C: number of panels, acid taste/acid smell slightly unpleasant",0.1 ppt,0
same,Flavor judgment: number of panels who judged acid taste/acid smell quality the highest,0.1 ppt,0
same,"N: number of panels, irritation of acid reduced to give a mild acid taste",0.1 ppt,0
same,"X: number of panels, acid taste reduced but piercing odor characteristic to aldehydes unpleasant",0.1 ppt,0
same,"A: number of panels, acid taste/acid smell extreme and cause irritation",0.2 ppt,8
same,"B: number of panels, acid taste/acid smell slightly strong and slightly cause irritation",0.2 ppt,2
same,"C: number of panels, acid taste/acid smell slightly unpleasant",0.2 ppt,0
same,Flavor judgment: number of panels who judged acid taste/acid smell quality the highest,0.2 ppt,0
same,"N: number of panels, irritation of acid reduced to give a mild acid taste",0.2 ppt,0
same,"X: number of panels, acid taste reduced but piercing odor characteristic to aldehydes unpleasant",0.2 ppt,0
same,"A: number of panels, acid taste/acid smell extreme and cause irritation",0.5 ppt,6
same,"B: number of panels, acid taste/acid smell slightly strong and slightly cause irritation",0.5 ppt,2
same,"C: number of panels, acid taste/acid smell slightly unpleasant",0.5 ppt,2
same,Flavor judgment: number of panels who judged acid taste/acid smell quality the highest,0.5 ppt,0
same,"N: number of panels, irritation of acid reduced to give a mild acid taste",0.5 ppt,0
same,"X: number of panels, acid taste reduced but piercing odor characteristic to aldehydes unpleasant",0.5 ppt,0
same,"A: number of panels, acid taste/acid smell extreme and cause irritation",1 ppb,0
same,"B: number of panels, acid taste/acid smell slightly strong and slightly cause irritation",1 ppb,0
same,"C: number of panels, acid taste/acid smell slightly unpleasant",1 ppb,2
same,Flavor judgment: number of panels who judged acid taste/acid smell quality the highest,1 ppb,0
same,"N: number of panels, irritation of acid reduced to give a mild acid taste",1 ppb,4
same,"X: number of panels, acid taste reduced but piercing odor characteristic to aldehydes unpleasant",1 ppb,4
same,"A: number of panels, acid taste/acid smell extreme and cause irritation",1 ppt,0
same,"B: number of panels, acid taste/acid smell slightly strong and slightly cause irritation",1 ppt,6
same,"C: number of panels, acid taste/acid smell slightly unpleasant",1 ppt,3
same,Flavor judgment: number of panels who judged acid taste/acid smell quality the highest,1 ppt,0
same,"N: number of panels, irritation of acid reduced to give a mild acid taste",1 ppt,1
same,"X: number of panels, acid taste reduced but piercing odor characteristic to aldehydes unpleasant",1 ppt,0
same,"A: number of panels, acid taste/acid smell extreme and cause irritation",5 ppt,0
same,"B: number of panels, acid taste/acid smell slightly strong and slightly cause irritation",5 ppt,1
same,"C: number of panels, acid taste/acid smell slightly unpleasant",5 ppt,3
same,Flavor judgment: number of panels who judged acid taste/acid smell quality the highest,5 ppt,4
same,"N: number of panels, irritation of acid reduced to give a mild acid taste",5 ppt,6
same,"X: number of panels, acid taste reduced but piercing odor characteristic to aldehydes unpleasant",5 ppt,0
same,"A: number of panels, acid taste/acid smell extreme and cause irritation",10 ppb,0
same,"B: number of panels, acid taste/acid smell slightly strong and slightly cause irritation",10 ppb,0
same,"C: number of panels, acid taste/acid smell slightly unpleasant",10 ppb,1
same,Flavor judgment: number of panels who judged acid taste/acid smell quality the highest,10 ppb,0
same,"N: number of panels, irritation of acid reduced to give a mild acid taste",10 ppb,2
same,"X: number of panels, acid taste reduced but piercing odor characteristic to aldehydes unpleasant",10 ppb,7
same,"A: number of panels, acid taste/acid smell extreme and cause irritation",20 ppt,0
same,"B: number of panels, acid taste/acid smell slightly strong and slightly cause irritation",20 ppt,0
same,"C: number of panels, acid taste/acid smell slightly unpleasant",20 ppt,3
same,Flavor judgment: number of panels who judged acid taste/acid smell quality the highest,20 ppt,4
same,"N: number of panels, irritation of acid reduced to give a mild acid taste",20 ppt,7
same,"X: number of panels, acid taste reduced but piercing odor characteristic to aldehydes unpleasant",20 ppt,0
same,"A: number of panels, acid taste/acid smell extreme and cause irritation",50 ppb,0
same,"B: number of panels, acid taste/acid smell slightly strong and slightly cause irritation",50 ppb,0
same,"C: number of panels, acid taste/acid smell slightly unpleasant",50 ppb,0
same,Flavor judgment: number of panels who judged acid taste/acid smell quality the highest,50 ppb,0
same,"N: number of panels, irritation of acid reduced to give a mild acid taste",50 ppb,2
same,"X: number of panels, acid taste reduced but piercing odor characteristic to aldehydes unpleasant",50 ppb,8
same,"A: number of panels, acid taste/acid smell extreme and cause irritation",100 ppt,0
same,"B: number of panels, acid taste/acid smell slightly strong and slightly cause irritation",100 ppt,0
same,"C: number of panels, acid taste/acid smell slightly unpleasant",100 ppt,2
same,Flavor judgment: number of panels who judged acid taste/acid smell quality the highest,100 ppt,2
same,"N: number of panels, irritation of acid reduced to give a mild acid taste",100 ppt,8
same,"X: number of panels, acid taste reduced but piercing odor characteristic to aldehydes unpleasant",100 ppt,0
same,"A: number of panels, acid taste/acid smell extreme and cause irritation",500 ppt,0
same,"B: number of panels, acid taste/acid smell slightly strong and slightly cause irritation",500 ppt,0
same,"C: number of panels, acid taste/acid smell slightly unpleasant",500 ppt,3
same,Flavor judgment: number of panels who judged acid taste/acid smell quality the highest,500 ppt,0
same,"N: number of panels, irritation of acid reduced to give a mild acid taste",500 ppt,4
same,"X: number of panels, acid taste reduced but piercing odor characteristic to aldehydes unpleasant",500 ppt,3
